Test results from patent US12493040B2, “Cancer detection method using sense of smell of nematode” (HIROTSU BIO SCIENCE INC., priority 2013, dated 2025).

Tested on: RNAi-treated eri-1 (mg366) nematodes
Assay: RNAi screening of olfactory receptor genes: chemotaxis assay of RNAi-treated nematodes to odorants
Type: in vivo, Caenorhabditis elegans
Details: repellent or high concentration of attractant
Description: The RNAi assay was carried out by performing an RNAi method involving the feeding (feeding RNAi method) of eri-1 (mg366) (19), using an Ahringer library (37).
Nine adult eri-1 mutants were placed on an NGM plate containing isopropyl 1-D-1-thiogalactopyranoside (0.19 g/L), ampicillin (60 mg/L), and Escherichia coli (E. coli), and were then cultured for 4 days. Subsequently, the adult worms were used in a chemotaxis assay. The chemotaxis assay was carried out as previously reported (6, 17). In the chemotaxis assay, the present inventor has used 30 to 50 worms in each experiment in which 1 μl of 10^−3- or 10^−4-diluted odorant (low concentration), or 1 and 5 μl of undiluted odorants (high concentration) were used.
The z score and a control value in each single test from 2SD were calculated in all days (Table 3) or every day. The z score was used as a threshold indicating a great difference (−1.96 and 1.96, P<0.05). […] Accordingly, the present inventor has used the z score±1 (−0.96 and 0.96, P<0.33) as a weaker threshold.

## O=Cc1ccccc1 [High Bz]
Control nematodes
  chemotaxis index: −0.91 ± 0.007
srh-4 RNAi-treated nematodes
  chemotaxis index: −0.75
srh-7 RNAi-treated nematodes
  chemotaxis index: −1.00
srh-8 RNAi-treated nematodes
  chemotaxis index: −0.93
srh-10 RNAi-treated nematodes
  chemotaxis index: −0.95
srh-11 RNAi-treated nematodes
  chemotaxis index: −0.78
srh-15 RNAi-treated nematodes
  chemotaxis index: −0.41
srh-16 RNAi-treated nematodes
  chemotaxis index: −0.88
srh-18 RNAi-treated nematodes
  chemotaxis index: −0.88
srh-19 RNAi-treated nematodes
  chemotaxis index: −1.00
srh-22 RNAi-treated nematodes
  chemotaxis index: −0.80
srh-23 RNAi-treated nematodes
  chemotaxis index: −0.88
srh-24 RNAi-treated nematodes
  chemotaxis index: −1.00
srh-25 RNAi-treated nematodes
  chemotaxis index: −0.73
srh-27 RNAi-treated nematodes
  chemotaxis index: 0.96
srh-28 RNAi-treated nematodes
  chemotaxis index: −0.75
srh-36 RNAi-treated nematodes
  chemotaxis index: −0.95
srh-37 RNAi-treated nematodes
  chemotaxis index: −1.00
srh-39 RNAi-treated nematodes
  chemotaxis index: −0.84
srh-40 RNAi-treated nematodes
  chemotaxis index: −0.87
srh-41 RNAi-treated nematodes
  chemotaxis index: −0.89
srh-44 RNAi-treated nematodes
  chemotaxis index: −0.48
srh-45 RNAi-treated nematodes
  chemotaxis index: −0.96
srh-46 RNAi-treated nematodes
  chemotaxis index: −0.82
srh-48 RNAi-treated nematodes
  chemotaxis index: −0.80
srh-49 RNAi-treated nematodes
  chemotaxis index: −0.76
srh-50 RNAi-treated nematodes
  chemotaxis index: −1.00
srh-51 RNAi-treated nematodes
  chemotaxis index: −0.96
srh-52 RNAi-treated nematodes
  chemotaxis index: −1.00
srh-55 RNAi-treated nematodes
  chemotaxis index: −0.98
srh-59 RNAi-treated nematodes
  chemotaxis index: −0.91
srh-60 RNAi-treated nematodes
  chemotaxis index: −0.98
srh-61 RNAi-treated nematodes
  chemotaxis index: −0.92
srh-67 RNAi-treated nematodes
  chemotaxis index: −0.97
srh-68 RNAi-treated nematodes
  chemotaxis index: −0.87
srh-69 RNAi-treated nematodes
  chemotaxis index: −0.87
srh-70 RNAi-treated nematodes
  chemotaxis index: −0.94
srh-71 RNAi-treated nematodes
  chemotaxis index: −0.91
srh-72 RNAi-treated nematodes
  chemotaxis index: −0.98
srh-74 RNAi-treated nematodes
  chemotaxis index: −0.95
srh-75 RNAi-treated nematodes
  chemotaxis index: −0.94
srh-77 RNAi-treated nematodes
  chemotaxis index: −0.89
srh-79 RNAi-treated nematodes
  chemotaxis index: −0.80
srh-80 RNAi-treated nematodes
  chemotaxis index: −0.87
srh-82 RNAi-treated nematodes
  chemotaxis index: −0.88
srh-83 RNAi-treated nematodes
  chemotaxis index: −0.45
srh-97 RNAi-treated nematodes
  chemotaxis index: −0.86
srh-99 RNAi-treated nematodes
  chemotaxis index: −0.74
srh-100 RNAi-treated nematodes
  chemotaxis index: −0.94
srh-104 RNAi-treated nematodes
  chemotaxis index: −0.91
srh-105 RNAi-treated nematodes
  chemotaxis index: −0.96
srh-109 RNAi-treated nematodes
  chemotaxis index: −0.87
srh-111 RNAi-treated nematodes
  chemotaxis index: −0.79

## CC(C)CCO [High Iaa]
Control nematodes
  chemotaxis index: −0.84 ± 0.011
srh-4 RNAi-treated nematodes
  chemotaxis index: −0.73
srh-7 RNAi-treated nematodes
  chemotaxis index: −0.86
srh-8 RNAi-treated nematodes
  chemotaxis index: −0.94
srh-10 RNAi-treated nematodes
  chemotaxis index: −0.96
srh-11 RNAi-treated nematodes
  chemotaxis index: −0.79
srh-15 RNAi-treated nematodes
  chemotaxis index: −0.60
srh-16 RNAi-treated nematodes
  chemotaxis index: −0.74
srh-18 RNAi-treated nematodes
  chemotaxis index: −0.78
srh-19 RNAi-treated nematodes
  chemotaxis index: −0.89
srh-22 RNAi-treated nematodes
  chemotaxis index: −0.81
srh-23 RNAi-treated nematodes
  chemotaxis index: −0.88
srh-24 RNAi-treated nematodes
  chemotaxis index: −1.00
srh-25 RNAi-treated nematodes
  chemotaxis index: 0.13
srh-27 RNAi-treated nematodes
  chemotaxis index: −0.92
srh-28 RNAi-treated nematodes
  chemotaxis index: −0.64
srh-36 RNAi-treated nematodes
  chemotaxis index: −0.59
srh-37 RNAi-treated nematodes
  chemotaxis index: −0.69
srh-39 RNAi-treated nematodes
  chemotaxis index: −0.79
srh-40 RNAi-treated nematodes
  chemotaxis index: −0.88
srh-41 RNAi-treated nematodes
  chemotaxis index: −0.56
srh-44 RNAi-treated nematodes
  chemotaxis index: 0.00
srh-45 RNAi-treated nematodes
  chemotaxis index: −0.97
srh-46 RNAi-treated nematodes
  chemotaxis index: −0.91
srh-48 RNAi-treated nematodes
  chemotaxis index: −0.67
srh-49 RNAi-treated nematodes
  chemotaxis index: −0.59
srh-50 RNAi-treated nematodes
  chemotaxis index: −0.93
srh-51 RNAi-treated nematodes
  chemotaxis index: −0.85
srh-52 RNAi-treated nematodes
  chemotaxis index: −0.96
srh-55 RNAi-treated nematodes
  chemotaxis index: −0.95
srh-59 RNAi-treated nematodes
  chemotaxis index: −0.87
srh-60 RNAi-treated nematodes
  chemotaxis index: −0.77
srh-61 RNAi-treated nematodes
  chemotaxis index: −0.82
srh-67 RNAi-treated nematodes
  chemotaxis index: −0.96
srh-68 RNAi-treated nematodes
  chemotaxis index: −0.67
srh-69 RNAi-treated nematodes
  chemotaxis index: −0.94
srh-70 RNAi-treated nematodes
  chemotaxis index: −0.40
srh-71 RNAi-treated nematodes
  chemotaxis index: −0.76
srh-72 RNAi-treated nematodes
  chemotaxis index: −0.55
srh-74 RNAi-treated nematodes
  chemotaxis index: −0.51
srh-75 RNAi-treated nematodes
  chemotaxis index: −0.50
srh-77 RNAi-treated nematodes
  chemotaxis index: −0.68
srh-79 RNAi-treated nematodes
  chemotaxis index: −0.22
srh-80 RNAi-treated nematodes
  chemotaxis index: −0.31
srh-82 RNAi-treated nematodes
  chemotaxis index: −0.53
srh-83 RNAi-treated nematodes
  chemotaxis index: 0.34
srh-97 RNAi-treated nematodes
  chemotaxis index: −0.51
srh-99 RNAi-treated nematodes
  chemotaxis index: −0.33
srh-100 RNAi-treated nematodes
  chemotaxis index: −0.64
srh-104 RNAi-treated nematodes
  chemotaxis index: −0.48
srh-105 RNAi-treated nematodes
  chemotaxis index: −0.76
srh-109 RNAi-treated nematodes
  chemotaxis index: −0.68
srh-111 RNAi-treated nematodes
  chemotaxis index: −0.08
